Tests used:
Assay in all cases: relative viability (nuclei count vs DMSO), 5 days (fraction); higher = more cells survive
[1] = compound: CN(C)CC1=CC(=CC=C1)N=C(C2=CC=CC=C2)C3=C(NC4=C3C=CC(=C4)C(=O)N(C)C)O
Summary of the method: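 MetaXpress counted nuclei in 4× images of lung cancer cell lines that had been fixed, permeabilised and Hoechst-stained in one step. Before that, cells in 1536-well plates were kept overnight at 37 °C, pinned with five √10-spaced library-drug doses on vehicle-anchored plates, and cultured 5 days without medium change. Viability takes treated-well nuclei over vehicle-well nuclei and uses the median across plates. Plates were accepted only at control CV below 25% and at least one doubling.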

[2] = compound: CN(C)CC1=CC(=CC=C1)N=C(C2=CC=CC=C2)C3=C(NC4=C3C=CC(=C4)C(=O)N(C)C)O + CC(C)C[C@H](NC(=O)[C@H](Cc1ccccc1)NC(=O)c1cnccn1)B(O)O [Bortezomib] (partner 0.002 µM)
Summary of the method: (§1)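 Lung cancer cell lines in 1536-well plates got either a single drug or a fixed anchor-drug dose together with five library-drug doses (not always all listed) in √10 steps, by pin tool, on the day after seeding. Nuclei were counted after 5 days, and relative viability is the treated-to-vehicle ratio of nuclei counts. Values are medians of duplicate plates.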

[3] = compound: CN(C)CC1=CC(=CC=C1)N=C(C2=CC=CC=C2)C3=C(NC4=C3C=CC(=C4)C(=O)N(C)C)O + CC1(C)CCC(c2ccc(Cl)cc2)=C(CN2CCN(c3ccc(C(=O)NS(=O)(=O)c4ccc(N[C@H](CCN5CCOCC5)CSc5ccccc5)c(S(=O)(=O)C(F)(F)F)c4)cc3)CC2)C1 [Navitoclax] (partner 0.5 µM)
Summary of the method: as §1

[4] = compound: CN(C)CC1=CC(=CC=C1)N=C(C2=CC=CC=C2)C3=C(NC4=C3C=CC(=C4)C(=O)N(C)C)O + COc1cc2c(Oc3ccc(NC(=O)C4(C(=O)Nc5ccc(F)cc5)CC4)cc3F)ccnc2cc1OCCCN1CCOCC1 [Foretinib] (partner 0.25 µM)
Summary of the method: as §1

[5] = compound: CN(C)CC1=CC(=CC=C1)N=C(C2=CC=CC=C2)C3=C(NC4=C3C=CC(=C4)C(=O)N(C)C)O + CS(=O)(=O)CCNCc1ccc(-c2ccc3ncnc(Nc4ccc(OCc5cccc(F)c5)c(Cl)c4)c3c2)o1 [Lapatinib] (partner 2 µM)
Summary of the method: as §1

[6] = compound: CN(C)CC1=CC(=CC=C1)N=C(C2=CC=CC=C2)C3=C(NC4=C3C=CC(=C4)C(=O)N(C)C)O + CS(=O)(=O)N1CCN(Cc2cc3nc(-c4cccc5[nH]ncc45)nc(N4CCOCC4)c3s2)CC1 [Pictilisib] (partner 1 µM)
Summary of the method: as §1

[7] = compound: CN(C)CC1=CC(=CC=C1)N=C(C2=CC=CC=C2)C3=C(NC4=C3C=CC(=C4)C(=O)N(C)C)O + C[C@@H](Oc1cc(-c2cnn(C3CCNCC3)c2)cnc1N)c1c(Cl)ccc(F)c1Cl [Crizotinib] (partner 1 µM)
Summary of the method: as §1

[8] = compound: CN(C)CC1=CC(=CC=C1)N=C(C2=CC=CC=C2)C3=C(NC4=C3C=CC(=C4)C(=O)N(C)C)O + C[C@]1(O)C[C@@H](c2nc(-c3ccc4ccc(-c5ccccc5)nc4c3)c3c(N)nccn32)C1 [Linsitinib] (partner 1 µM)
Summary of the method: as §1

[9] = compound: CN(C)CC1=CC(=CC=C1)N=C(C2=CC=CC=C2)C3=C(NC4=C3C=CC(=C4)C(=O)N(C)C)O + Cc1nc(NC(=O)N2CCC[C@H]2C(N)=O)sc1-c1ccnc(C(C)(C)C(F)(F)F)c1 [Alpelisib] (partner 2 µM)
Summary of the method: as §1

[10] = compound: CN(C)CC1=CC(=CC=C1)N=C(C2=CC=CC=C2)C3=C(NC4=C3C=CC(=C4)C(=O)N(C)C)O + O=C(c1cc(Cc2n[nH]c(=O)c3ccccc23)ccc1F)N1CCN(C(=O)C2CC2)CC1 [Olaparib] (partner 8 µM)
Summary of the method: as §1

[11] = compound: CN(C)CC1=CC(=CC=C1)N=C(C2=CC=CC=C2)C3=C(NC4=C3C=CC(=C4)C(=O)N(C)C)O + CCNC(=O)c1noc(-c2cc(C(C)C)c(O)cc2O)c1-c1ccc(CN2CCOCC2)cc1 [Luminespib] (partner 0.01 µM)
Summary of the method: as §1

[12] = compound: CN(C)CC1=CC(=CC=C1)N=C(C2=CC=CC=C2)C3=C(NC4=C3C=CC(=C4)C(=O)N(C)C)O + COc1cccc2cc(-c3nc([C@H]4CC[C@H](C(=O)O)CC4)n4ncnc(N)c34)[nH]c12 [OSI-027] (partner 0.5 µM)
Summary of the method: as §1

[13] = compound: CN(C)CC1=CC(=CC=C1)N=C(C2=CC=CC=C2)C3=C(NC4=C3C=CC(=C4)C(=O)N(C)C)O + Cc1cc(Nc2cc(N3CCN(C)CC3)nc(Sc3ccc(NC(=O)C4CC4)cc3)n2)n[nH]1 [Tozasertib] (partner 0.1 µM)
Summary of the method: as §1

[14] = compound: CN(C)CC1=CC(=CC=C1)N=C(C2=CC=CC=C2)C3=C(NC4=C3C=CC(=C4)C(=O)N(C)C)O + Cc1nc(Nc2ncc(C(=O)Nc3c(C)cccc3Cl)s2)cc(N2CCN(CCO)CC2)n1 [Dasatinib] (partner 0.075 µM)
Summary of the method: as §1

[15] = compound: CN(C)CC1=CC(=CC=C1)N=C(C2=CC=CC=C2)C3=C(NC4=C3C=CC(=C4)C(=O)N(C)C)O + N=C(N)NC(=N)NCCc1ccccc1 [Phenformin] (partner 250 µM)
Summary of the method: as §1

NCI-H1299 showed a relative viability ([1]; 0.08 µM) of 0.998, a relative viability ([1]; 0.253 µM) of 1.03 and a relative viability ([1]; 0.8 µM) of 1.01. It also gave a relative viability ([1]; 2.53 µM) of 1.01, a relative viability ([1]; 8 µM) of 0.977 and a relative viability ([2]; first compound 0.08 µM) of 1.02. It also gave a relative viability ([2]; first compound 0.253 µM) of 1.04, a relative viability ([2]; first compound 0.8 µM) of 1.01 and a relative viability ([2]; first compound 2.53 µM) of 0.996. It also gave a relative viability ([2]; first compound 8 µM) of 0.912, a relative viability ([3]; first compound 0.08 µM) of 1.14 and a relative viability ([3]; first compound 0.253 µM) of 1.05. For the same cell line, the relative viability ([3]; first compound 0.8 µM) was 1.09, the relative viability ([3]; first compound 2.53 µM) was 1.03 and the relative viability ([3]; first compound 8 µM) was 1.01. It also gave a relative viability ([4]; first compound 0.08 µM) of 1.09, a relative viability ([4]; first compound 0.253 µM) of 1.06 and a relative viability ([4]; first compound 0.8 µM) of 1.14. For the same cell line, the relative viability ([4]; first compound 2.53 µM) was 1.04, the relative viability ([4]; first compound 8 µM) was 1.08 and the relative viability ([5]; first compound 0.08 µM) was 0.957. The relative viability ([5]; first compound 0.253 µM) was 0.914, the relative viability ([5]; first compound 0.8 µM) was 0.977 and the relative viability ([5]; first compound 2.53 µM) was 0.875. It also gave a relative viability ([5]; first compound 8 µM) of 0.915, a relative viability ([6]; first compound 0.08 µM) of 0.509 and a relative viability ([6]; first compound 0.253 µM) of 0.854. The relative viability ([6]; first compound 0.8 µM) was 0.849, the relative viability ([6]; first compound 2.53 µM) was 0.6 and the relative viability ([6]; first compound 8 µM) was 0.355. For the same cell line, the relative viability ([7]; first compound 0.08 µM) was 0.92, the relative viability ([7]; first compound 0.253 µM) was 0.93 and the relative viability ([7]; first compound 0.8 µM) was 0.988. For the same cell line, the relative viability ([7]; first compound 2.53 µM) was 0.834, the relative viability ([7]; first compound 8 µM) was 0.939 and the relative viability ([8]; first compound 0.08 µM) was 1.05. The relative viability ([8]; first compound 0.253 µM) was 0.969, the relative viability ([8]; first compound 0.8 µM) was 1.02 and the relative viability ([8]; first compound 2.53 µM) was 0.946. For the same cell line, the relative viability ([8]; first compound 8 µM) was 0.972, the relative viability ([9]; first compound 0.08 µM) was 0.953 and the relative viability ([9]; first compound 0.253 µM) was 1.04. The relative viability ([9]; first compound 0.8 µM) was 1.05, the relative viability ([9]; first compound 2.53 µM) was 1.04 and the relative viability ([9]; first compound 8 µM) was 1.02. For the same cell line, the relative viability ([10]; first compound 0.08 µM) was 0.982, the relative viability ([10]; first compound 0.253 µM) was 0.999 and the relative viability ([10]; first compound 0.8 µM) was 0.962. For the same cell line, the relative viability ([10]; first compound 2.53 µM) was 0.909 and the relative viability ([10]; first compound 8 µM) was 0.901.

NCI-H1623 was tested, and the relative viability ([1]; 0.08 µM) was 1.09, the relative viability ([1]; 0.253 µM) was 0.97 and the relative viability ([1]; 0.8 µM) was 0.729. It also gave a relative viability ([1]; 2.53 µM) of 1.04, a relative viability ([1]; 8 µM) of 1.09 and a relative viability ([11]; first compound 0.08 µM) of 0.416. For the same cell line, the relative viability ([11]; first compound 0.253 µM) was 0.652, the relative viability ([11]; first compound 2.53 µM) was 0.445 and the relative viability ([11]; first compound 8 µM) was 0.504. It also gave a relative viability ([4]; first compound 0.08 µM) of 0.825, a relative viability ([4]; first compound 0.253 µM) of 1.17 and a relative viability ([4]; first compound 0.8 µM) of 0.642. It also gave a relative viability ([4]; first compound 2.53 µM) of 0.894, a relative viability ([4]; first compound 8 µM) of 0.854 and a relative viability ([12]; first compound 0.08 µM) of 0.428. For the same cell line, the relative viability ([12]; first compound 0.253 µM) was 0.449, the relative viability ([12]; first compound 0.8 µM) was 0.378 and the relative viability ([12]; first compound 2.53 µM) was 0.452. The relative viability ([12]; first compound 8 µM) was 0.514, the relative viability ([13]; first compound 0.08 µM) was 0.428 and the relative viability ([13]; first compound 0.253 µM) was 0.519. It also gave a relative viability ([13]; first compound 2.53 µM) of 0.412, a relative viability ([13]; first compound 8 µM) of 0.464 and a relative viability ([14]; first compound 0.08 µM) of 0.552. It also gave a relative viability ([14]; first compound 0.253 µM) of 0.632, a relative viability ([14]; first compound 2.53 µM) of 0.593 and a relative viability ([14]; first compound 8 µM) of 0.499. The relative viability ([15]; first compound 0.08 µM) was 0.544, the relative viability ([15]; first compound 0.253 µM) was 0.69 and the relative viability ([15]; first compound 2.53 µM) was 0.551. For the same cell line, the relative viability ([15]; first compound 8 µM) was 0.514.
